Laboratory results published in publication PMC11380953, “Multivalent, calcium-independent binding of surfactant protein A and D to sulfated glycosaminoglycans of the alveolar epithelial glycocalyx” (American Journal of Physiology - Lung Cellular and …, 2024).
Where two headings read alike, the source gives them in different places.

Key:
[1] = target: T1, hSP-A (human SP-A, isolated from BAL of PAP patient) (Homo sapiens, UniProt Q8IWL1+Q8IWL2); assay: Microscale thermophoresis (MST) binding to hSP-A; design: Response Amplitude: unit not given here; conditions: for binding of hSP-A in the absence or presence of low calcium concentrations: 0 and 2.5 mM calcium (Fig. 3A-C); for Response Amplitude / Kd: hSP-A
T1 construct: Human PAP patient, BAL isolated; from tissue; host or cells: bronchoalveolar lavage fluid of a patient with pulmonary alveolar proteinosis
T1 sequence (Q8IWL2 21-248): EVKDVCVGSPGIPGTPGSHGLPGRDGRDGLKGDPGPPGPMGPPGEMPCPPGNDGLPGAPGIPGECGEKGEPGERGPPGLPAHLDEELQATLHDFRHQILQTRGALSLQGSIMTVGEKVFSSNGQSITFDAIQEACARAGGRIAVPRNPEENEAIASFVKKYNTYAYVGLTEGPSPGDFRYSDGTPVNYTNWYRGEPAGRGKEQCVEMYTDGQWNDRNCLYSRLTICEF
T1 sequence (Q8IWL1 21-248): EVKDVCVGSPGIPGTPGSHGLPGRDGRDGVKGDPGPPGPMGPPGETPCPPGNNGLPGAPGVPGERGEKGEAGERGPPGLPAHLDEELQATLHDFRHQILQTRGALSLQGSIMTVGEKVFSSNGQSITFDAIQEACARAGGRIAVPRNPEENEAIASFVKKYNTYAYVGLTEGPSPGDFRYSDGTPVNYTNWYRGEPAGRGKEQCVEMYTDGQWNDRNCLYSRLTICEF
Experimental: (§1) Human-isolated and recombinant proteins were labeled using the Monolith Protein Labeling Kit RED-NHS according to the manufacturer’s instructions. This kit reagent reacts with lysine residues present in the sequence of the protein, as the dye carries a reactive NHS-ester group. Briefly, as all the proteins were in a Tris buffer solution, the buffer solution was exchanged to a HEPES-based buffer with the A-Column provided in the kit. Then, 10 µM solution of protein was incubated with a threefold excess of dye in 100 µL for 30 min at room temperature protected from light. The labeled protein was separated from the free dye using the B-Column provided in the kit. The concentration of the labeled protein {c(M) = [A205 − (A650 × 0.19)]/[31 × MWprotein]) and the degree of labeling [DOL = A650/(195.000 M^−1cm^−1 × c(M)] were calculated according to the manufacturer’s instruction, measuring absorption at 205 nm (for the protein) and 650 nm (for the dye).
(§2) Thermophoresis is the phenomenon of movement of particles along a temperature gradient. Solvated molecules move from higher to lower temperature. This movement or depletion of molecules from the heat is quantified by the Soret coefficient ST: Chot/Ccold = exp (−STΔT). The depletion of molecules depends on the interface between molecule and solvent. Therefore, thermophoresis monitors changes in size, charge, and solvation entropy of molecules. In this regard, the thermophoresis or movement of a protein is different from a protein-ligand complex ([35]). Microscale or miniaturized thermophoresis allows to monitor molecular interaction in only a few microliters. For this method, the fluorescently labeled protein is mixed with a decreasing concentration of a ligand in 16 glass capillaries. The initial fluorescence is measured (Fcold), then an infrared (IR) laser beam is switched on and focused on the center of the first capillary, where the temperature gradient is created from the center to the walls of the capillary. At the same time, a dichroic mirror allows fluorescence from the labeled protein to be monitored (Fhot). The rate of fluorescence change is related to the amount of protein-ligand complex form, which depends on the ligand concentration, due to changes in size, charge, or hydration shell of the protein-ligand complex. The dissociation constant KD is calculated from the binding curve derived by plotting the normalized fluorescence (FNorm) at a given time after the start of the thermophoresis against the respective ligand concentration ([33], [34], [36]).
(§3) Samples were measured in a Monolith NT.115, using Premium Capillaries (MO-K025) and Monolith Protein labeling kit RED-NHS (MO-L011) all from NanoTemper Technologies (Munich, Germany). Solutions of a 3X concentrated MST buffer (15 mM Tris, 300 mM NaCl, 0.3% Tween 20, 15 mM CaCl2, pH 7.4), sugars (270 mM) or GAG (30 µM) solution, and protein solution (27 nM) were prepared separately. When a different concentration was used, a threefold concentration of the solution was prepared. Afterward, sugars and GAG solutions were diluted 1:2 with water in a series of 16 steps. For the measurement, 3 µL of each prepared component (3 µL MST buffer, 3 µL GAG solution, and 3 µL labeled protein) was mixed, centrifuged shortly to eliminate precipitates, and loaded into a glass capillary. The final concentrations of the sugars were thus between 90 –and 0.00275 mM or GAGs 10 and 0.000305 µM for GAGs, respectively. The 16 capillaries were loaded in the Monolith NT.115 and measurements were performed with a 40% LED power and medium MST power at 25°C.
(§4) Every set of 16 capillaries was prepared in 3–6 replicates (technical replicates) and measured. The replicate measures of every capillary were plotted against concentration and outliers were excluded, using the MO Affinity Analysis 3 v01 software (NanoTemper Technologies, Munich, Germany). […]

hSP-A = target: T2, hSP-A (Homo sapiens, UniProt Q8IWL1+Q8IWL2); assay: Binding inhibition assay (hSP-A binding to coated mannan); conditions: GAGs 15 µM to 30 nM, 5 mM CaCl2 (Fig. 1G)
T2 construct: Human PAP patient, BAL isolated; from tissue; host or cells: bronchoalveolar lavage fluid of a patient with pulmonary alveolar proteinosis
T2 sequence (Q8IWL2 21-248): as the sequence (Q8IWL2 21-248) above
T2 sequence (Q8IWL1 21-248): as the sequence (Q8IWL1 21-248) above
Experimental: Following previously described assays ([41], [42]), 96-well plates (83.3924.005, Sarstaedt AG, Nümbrecht, Germany) were coated with 70 ng/well (total volume of 100 µL/well) of mannan (M7504, Sigma-Aldrich, St. Louis) dissolved in 0.1 M NaHCO3 buffer (pH 9.6) overnight at 4°C. After removal of the coating solution, wells were blocked with 100 µL of 5 mM Tris with 2% BSA (Serva, Heidelberg, Germany) at room temperature for 2 h. Plates were washed three times with 100 µL/well washing buffer (5 mM Tris, 0.9% NaCl, 0.05% Tween-20, and 5 mM CaCl2). Next, different concentrations of HA, HS, or CS ranging from 15 µM to 30 nM and hSP-A at 14 ng/well were added to washing buffer with 0.1% BSA. The plate was incubated for 2 h at room temperature to allow the protein to bind to either mannan or GAGs. After subsequent washing, as stated before, mannan-bound hSP-A was immunodetected by incubation with a specific anti-SP-A antibody (ab190087, Abcam, Cambridge, UK) at a 0.5 µg/mL concentration for 2 h at room temperature in washing buffer. After washing the excess of antibody, a secondary antibody conjugated with HRP (horseradish peroxidase) anti-goat (Abcam, ab 6885, Cambridge, UK) was added at 2 µg/mL for 1 h at room temperature. After washing, the color reaction was developed by adding 50 µL of TMB liquid substrate (T0440, Sigma-Aldrich, St. Louis). After 30 min, the reaction was stopped by adding 50 µL of Stop Reagent (S5814, Sigma-Aldrich, St. Louis) and the plate was read at 450 nm in a plate reader (FLUOstar Omega, BMG Labtech, Ortenberg, Germany).
The data of the binding inhibition assay were analyzed in GraphPad Prism 9.5.1 using the “normalize” function and fitting to the nonlinear regression dose-response inhibition. […] The fluorescence values from the collectin-based binding assay were normalized using the same “normalize” function in GraphPad, and the statistical test used was the “non-parametric Kruskal-Wallis” test. The statistical test used for the DMMB assay for GAG quantification was also the “non-parametric Kruskal-Wallis” test.

[2] = target: T3, recSP-A2 (human recombinant SP-A2) (Homo sapiens, UniProt Q8IWL1); assay: Microscale thermophoresis (MST) binding to recSP-A2; conditions: for Kd: recSP-A2, GAGs from Fig. 2, read-out: Kd (±KD Confidence); for Response Amplitude: recSP-A2, MST, GAGs from Fig. 2
T3 construct: purchased Aviva Systems Biology OPCD07132; host or cells: prokaryotic expression
T3 sequence (Q8IWL1 21-248): as above
Experimental: as §1, §2, §3, §4

[3] = GAGs from Fig. 2, read-out: Kd (±KD Confidence)

Substance	binding of hSP-A in the absence or presence of low calcium concentrations ([1]; MST)	Response Amplitude ([1]; 0 mM Ca^2+)	Kd ([1]; 0 mM Ca^2+, read-out: KD) [µM]	Response Amplitude ([1]; 2.5 mM Ca^2+)	Response Amplitude ([1]; 5 mM Ca^2+)	Kd ([1]; 5 mM Ca^2+, read-out: KD) [µM]	Response Amplitude ([1]; 10 mM Ca^2+)	Kd ([1]; 10 mM Ca^2+, read-out: KD) [µM]	Kd [1, 3] [µM]	Response Amplitude ([1]; MST, GAGs from Fig. 2)	hSP-A binding inhibition to mannan (hSP-A)	Kd [2] [µM]	Response Amplitude [2]	Kd ([1]; 2.5 mM Ca^2+, read-out: KD) [µM]
chondroitin sulfate sodium salt [CS]	binds	7.16	0.000999	13.45	8.07	0.00738	6.89	0.00591	0.225	8.37	in the µM range	0.0552	31.90	
heparan sulfate sodium [HS]	binds	3.61	0.00322	9.27	7.51	0.00374	2.79	0.375	0.0233	11.92	in the µM range	0.143	15.59	0.000188
hyaluronic acid sodium salt [HA]	not able to bind				7.31	0.00291	3.65	0.0546	0.0122	12.93	in the µM range	1.87	19.28	
